# Like-named read-outs stand apart in the source and are kept apart here.
# Columns and labels:
# [1] = Shell wheel test (corrosion inhibition); details: carbon steel coupons in saltwater/petroleum mixture, pH 3.5, 70° C., 24 hours; 50 ppm of a 40% solution of the inhibitor; from mass decrease based on a blank value
# Method: The inventive compounds were tested as corrosion inhibitors in the Shell wheel test. Coupons of carbon steel (DIN 1.1203 with surface area 15 cm^2) were immersed into a saltwater/petroleum mixture (9:1.5% NaCl solution adjusted to pH 3.5 with acetic acid) and exposed to this medium at a peripheral speed of 40 rpm at 70° C. for 24 hours. The dosage of the inhibitor was 50 ppm of a 40% solution of the inhibitor. The protection values were calculated from the mass decrease of the coupons based on a blank value.
# [2] = LPR test (test conditions analogous to ASTM D 2776); parameters: concentration or dose not given beside the values
# Method: The products were also tested in the LPR test (test conditions analogous to ASTM D 2776).
# Shaking foam test = format: physicochemical; details: 50 ml of a 3% aqueous solution in demineralized water shaken 20 times within 10 seconds; graded weakly foaming, foaming or highly foaming
# Skeletonema costatum = assay: Toxicity (EC50 Skeletonema costatum); format: cell-based
# [3] = Biodegradability (OECD 306)
Compound,Ø % protection [1] [%],Protection after 10 min [2] [%],Protection after 30 min [2] [%],Protection after 60 min [2] [%],Foaming behavior (Shaking foam test),Toxicity EC50 (Skeletonema costatum) [µg/mL],Biodegradability ([3]; OECD 306) [%],EC50 (Skeletonema costatum) [µg/mL],Biodegradability [3] [%]
N-Cocoyl-DL-methionine morpholinium salt [compound from example 5],85,90.3,94.2,98.9,,,,,
N-Oleyl-DL-methionine 2-(2-hydroxyethoxy)ethylammonium salt [compound from example 7],82,78.5,92.9,98.5,weakly foaming,,,,
"N-Cocoyl-DL-methionine N,N-diethyl-(2-hydroxyethyl)-ammonium salt [compound from example 6]",83,92.0,96.7,99.0,,15.4,,,
"CCCCCCCCCCCC(=O)NCC(=O)[O-].[Na+] [comparative 2, N-lauroylglycine sodium salt, reference compound]",45,15.4,35.2,42.9,highly foaming,,44.5,8.5,
N-Dodecyl-DL-methionine cyclohexylammonium salt [compound from example 3],78,76.4,88.4,97.2,weakly foaming,22.3,84.0,,
"CCCCCCCCNC(CCSC)C(=O)O.NCCO (racemic) [compound from example 1, N-Octyl-DL-methionine monoethanolammonium salt]",63,60.5,75.3,88.4,weakly foaming,44.5,,,92.4
N-Dodecyl-DL-methionine dibutylammonium salt [compound from example 4],80,74.8,87.3,96.8,weakly foaming,,,,
"CCCCCCCC/C=C\CCCCCCCCNC(CCSC)C(=O)O.OCCN(CCO)CCO (racemic) [compound from example 8, N-Oleyl-DL-methionine triethanolammonium salt]",85,80.1,94.5,98.6,weakly foaming,13.6,,,85.4
"CCCCCCCCCCCCCC(=O)N[C@@H](CC(=O)[O-])C(=O)[O-].[Na+].[Na+] [comparative 3, N-myristoyl-L-aspartic acid disodium salt, reference compound]",38,20.0,42.6,47.1,highly foaming,,50.3,9.5,
"CCCCCCCCNC(CCSC)C(=O)O.OCCN(CCO)CCO (racemic) [compound from example 2, N-Octyl-DL-methionine triethanolammonium salt]",72,62.9,76.1,90.0,weakly foaming,,,,
